Experiments:
[1] = Lipophilicity (logD7.4), n-octanol/PBS pH 7.4; assay type: physicochemical; conditions: n-octanol/PBS pH 7.4; read-out: logD7.4
Protocol: Cell-based experiments and determination of lipophilicity (logD7.4) were performed as previously published. A detailed description of the in vitro experiments is provided in the Supplementary Materials.
Cell Culture. CCK-2R-expressing rat pancreatic cancer cells AR42J (CLS GmbH, Eppelheim, Germany) were cultivated in monolayers in CELLSTAR® cell culture flasks acquired from Greiner Bio-One GmbH (Frickenhausen, Germany) at 37°C in a humidified atmosphere (5% CO2) using a HERAcell 150i-Incubator (Thermo Fisher Scientific Inc., Waltham, United States). The nutrient medium RPMI 1640 medium, supplemented with 5 mM L-Gln 5 mL non-essential amino acids (100×) and 10% FCS, was used. Furthermore, a Dulbecco’s PBS solution with 0.1% EDTA (v/v) was applied to detach the cells for cell passaging. The detached cells were counted using a Neubauer hemocytometer (Paul Marienfeld, Lauda-Königshofen, Germany). In addition, all operations under sterile conditions were accomplished using a MSC-Advantage safety workbench (Thermo Fisher Scientific Inc., Waltham, United States).
Determination of IC50. AR42J cells (2.0 × 10^5 cells/well) were seeded into 24-well plates 24 ± 2 h prior to testing using 1 mL of nutrient medium (RPMI 1640, 5 mM L-Gln, 5 mL non-essential amino acids (100×), 10% FCS). Cells were incubated at 37°C in a humidified atmosphere (5% CO2).
After the removal of the medium, each well was washed with 500 μL PBS. For the cell-based assay, 200 μL of the nutrient medium (+5% BSA), [ 177Lu]Lu-DOTA-PP-F11N (25 μL, 0.3 pmol) as a radiolabeled reference and 25 μL of the peptide of interest in increasing concentrations (10 −10 to 10−4 M) were added to the cells in triplicate. Thereafter, the assay was incubated for 3 h at 37°C and the supernatant was collected. The cells were washed with 300 μL PBS and the collected supernatant fractions were unified.
After lysis of the cells with NaOH (300 μL, 1 N) for 15 min, the respective wells were washed with NaOH (300 μ L, 1 N) and both fractions were unified. The radioactivity of both the supernatant and the lysed fractions were quantified using a γ-counter (PerkinElmer Inc., Waltham, United States). The obtained data were evaluated via the GraphPad PRISM software (GraphPad Software Inc., La Jolla, United States), which calculates the half-maximal inhibitory concentration (IC50) of the peptides.
Internalization Studies. For the determination of the internalization kinetics of the various peptides, AR42J cells (3.0 × 10^5 cells/well) were seeded into polylysine-coated 24-well plates, adding 1 mL of nutrient medium. Afterwards, the cells were incubated for 24 ± 2 h at 37°C in a humidified atmosphere […]
On the day of the experiment, the medium was removed, and each well was washed with nutrient medium (300 μL). Afterwards 200 μL of nutrient medium, 25 μL of the 177Lu-labeled peptide (0.3 pmol, n = 6) and either 25 μL of nutrient medium for internalization studies ( n = 3) or 25 μL of [natLu]Lu-DOTA-PP-F11N (10 μmol) for competition studies ( n = 3) were added. Thereafter, the assay was incubated for various time points (1, 2, 4 and 6 h) at 37°C in a humidified atmosphere (5% CO2). After incubation, the cells were put on ice for at least 1 min to stop internalization kinetics and the supernatant was collected. Then, the cells were washed with an ice-cold nutrient medium (300 μL) and both fractions were unified. […] The radioactivity of the supernatant, the acid wash and the lysed fractions were quantified using a γ-counter. […]

CCK-2R [2] = target: T1, CCK-2R (Rattus norvegicus, UniProt P30553); design: method as in earlier work; conditions: % of applied activity, 37 °C, AR42J cells, identical conditions, cited from earlier work
T1 construct: CCK-2R-expressing rat pancreatic cancer cells AR42J; host or cells: AR42J (rat pancreatic cancer cells)
T1 sequence (P30553 1-452): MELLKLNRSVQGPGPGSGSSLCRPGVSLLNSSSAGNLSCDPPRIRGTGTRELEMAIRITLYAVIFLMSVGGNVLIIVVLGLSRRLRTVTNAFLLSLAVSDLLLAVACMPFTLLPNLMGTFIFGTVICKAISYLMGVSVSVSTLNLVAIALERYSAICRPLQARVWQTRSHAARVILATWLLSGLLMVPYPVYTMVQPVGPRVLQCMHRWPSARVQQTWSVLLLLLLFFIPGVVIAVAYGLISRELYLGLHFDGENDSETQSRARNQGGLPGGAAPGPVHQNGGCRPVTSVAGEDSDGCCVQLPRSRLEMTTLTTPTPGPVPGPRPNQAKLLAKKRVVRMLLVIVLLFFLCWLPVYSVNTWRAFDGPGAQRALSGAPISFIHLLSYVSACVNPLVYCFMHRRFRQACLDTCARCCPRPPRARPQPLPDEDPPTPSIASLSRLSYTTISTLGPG

[3] = test system: AR42J tumor-bearing CB17-SCID mice; conditions: 24 h p.i., 100 pmol; cited from earlier work
CCK-2R [4] = target: T1, CCK-2R; design: method as in earlier work; conditions: natLu-labeled peptide; AR42J cells, [177Lu]Lu-DOTA-PP-F11N 0.3 pmol/well, 3 h, 37 °C, n = 3; identical conditions; cited from earlier work

CCCC[C@H](NC(=O)[C@H](Cc1c[nH]c2ccccc12)NC(=O)CNC(=O)[C@H](Cc1ccc(O)cc1)NC(=O)[C@H](C)NC(=O)[C@@H](CCC(=O)O)NC(=O)[C@@H](CCC(=O)O)NC(=O)[C@@H](CCC(=O)O)NC(=O)[C@@H](CCC(=O)O)NC(=O)[C@@H](CCC(=O)O)NC(=O)[C@@H](CCC(=O)O)NC(=O)CN1CCN(CC(=O)O)CCN(CC(=O)O)CCN(CC(=O)O)CC1)C(=O)N[C@@H](CC(=O)O)C(=O)N[C@@H](Cc1ccccc1)C(N)=O [[^177Lu]Lu-DOTA-PP-F11N, metal not drawn]
logD [1]: < -4
Internalization Values (%) 1 h (CCK-2R [2]; 1 h): 6.44 ± 0.32%
Internalization Values (%) 2 h (CCK-2R [2]; 2 h): 10.1 ± 0.4%
Internalization Values (%) 4 h (CCK-2R [2]; 4 h): 17.5 ± 1.0%
Internalization Values (%) 6 h (CCK-2R [2]; 6 h): 22.4 ± 0.6%
activity uptake in the tumor [3]: 1.9 ± 0.8 %ID/g

CCCC[C@H](NC(=O)[C@H](Cc1c[nH]c2ccccc12)NC(=O)CNC(=O)[C@H](Cc1ccc(O)cc1)NC(=O)[C@H](C)NC(=O)CC[C@@H](NC(=O)CC[C@@H](NC(=O)CC[C@@H](NC(=O)CC[C@@H](NC(=O)CC[C@@H](NC(=O)CC[C@@H](NC(=O)CC[C@@H](NC(=O)CC[C@@H](NC(=O)[C@@H](CNC(=O)c1ccc([Si](F)(C(C)(C)C)C(C)(C)C)cc1)NC(=O)CC[C@H](C(=O)O)N1CCN(CC(=O)O)CCN(CC(=O)O)CCN(CC(=O)O)CC1)C(=O)O)C(=O)O)C(=O)O)C(=O)O)C(=O)O)C(=O)O)C(=O)O)C(=O)O)C(=O)N[C@@H](CC(=O)O)C(=O)N[C@@H](Cc1ccccc1)C(N)=O [(R)-DOTAGA-rhCCK-18]
IC50 (CCK-2R [4]): 20.4 ± 2 nM

Source: publication PMC10054553, “Development of the First ^18F-Labeled Radiohybrid-Based Minigastrin Derivative with High Target Affinity and Tumor Accumulation by Substitution of the Chelating Moiety” (Pharmaceutics, 2023)
